Results published in patent publication EP0146338A2, “A blood accelerator 2, 3-diphosphoglyceric acid” (SHIRATORI PHARMACEUTICAL CO. LTD., priority 1983, dated 1985).

Columns and labels:
[1] = system: human ACD (acid chitorate dextrose) preserved blood; assay: 2,3-DPG level after addition of naphthoquinone to preserved blood (Keitt's method); assay type: cell-based; details: for Blood level of 2,3-DPG: One hundred PM naphthoquinone in 1 ml human ACD preserved blood, 60 min at 37°C, control 294; for Concentrations of 2,3-DPG: preserved blood, mean ± standard error, n=30
Toxicity (LD50), mouse = details: in vivo
Toxicity (LD50), rat = details: in vivo, po
[2] = system: fresh blood taken from a patient with an ischemic disease; assay: 2,3-DPG level after addition of vitamin K3 to fresh blood of patients with an ischemic disease; assay type: cell-based, human; details: 100 µM
Protocol: One hundred PM of each naphthoquinone (use 10 mM naphthoquinone dissolved in 50 % ethanol solution) was added to 1 ml of human ACD (acid chitorate dextrose) preserved blood (of which 2,3-DPG concentration had decreased to 1/20 of the normal level). After incubation for 60 min at 37°C, the reaction was stopped by addition of perchloric acid. According to Keitt's method (J. Lab. Clin. Med. 77, 470-475 (1971)), thereafter, 2,3-DPG was extracted and quantified.
One hundred µM of vitamin K3 was added in 1 ml of fresh blood taken from a patient with an ischemic disease, and the concentration of 2,3-DPG was determined in the same manner as in Example 1.

O=C1C=C(S(=O)(=O)O)c2ccccc2C1=O [1,2-Naphthoquinone-4-sulfonic acid, 1,2-naphthoquinone-4-sulfonic acid]
Blood level of 2,3-DPG [1]: 3923 n moles/ml RBC | LD50 (Toxicity (LD50), mouse; ip): 625 mg/kg

O=C1C=CC(=O)c2ccccc21 [1,4-Naphthoquinone, 1,4-naphthoquinone]
LD50 (Toxicity (LD50), rat): 190 mg/kg | Blood level of 2,3-DPG [1]: 3554 n moles/ml RBC

O=C1C(Cl)=C(Cl)C(=O)c2ccccc21 [2,3-Dichloro-1,4-naphthoquinone, 2,3-dichloro-1,4-naphthoquinone]
Blood level of 2,3-DPG [1]: 3971 n moles/ml RBC

CC1=CC(=O)c2ccccc2C1=O [Vitamin K3, 2-methyl-l,4-naphthoqunone]
blood levels of 2,3-DPG in the patients with ischemic diseases (in words) ([2]; normal subjects 4931± 53): recovered to the normal level or higher levels | Concentrations of 2,3-DPG ([2]; Buerger's Disease, n=12, no addition 4253±287): 5490±117(12) n moles/ml RBC | Concentrations of 2,3-DPG ([2]; Closed arteriosclerosis, n=15, no addition 4796±365): 5624±266(15) n moles/ml RBC | Blood level of 2,3-DPG [1]: 3660 n moles/ml RBC | Concentrations of 2,3-DPG ([1]; dose 10 µM, dose 0: 227 ± 15): 1124 ± 107 (30) n moles/ml RBC | Concentrations of 2,3-DPG ([1]; dose 100 µM): 3256 ± 244 (30) n moles/ml RBC | Concentrations of 2,3-DPG ([1]; dose 1000 µM): 5144 ± 253 (30) n moles/ml RBC | Concentrations of 2,3-DPG ([1]; dose 10000 µM): 5569 ± 311 (30) n moles/ml RBC | LD50 (Toxicity (LD50), mouse; po): 500 mg/kg
